This passage reports Kd results from paper PMC12391121, “Identification and validation of the VEGF/p38MAPK/HSP27 pro-tumor inflammatory pathway: screening of active components from Patrinia villosa and evaluation of their drug-likeness” (Frontiers in Immunology, 2025).

One assay addresses T1, HSP27 (Homo sapiens, UniProt P04792).
T1 construct: gene HSPB1; commercial recombinant human protein; labelled with Monolith RED-NHS
The experiment in a line: microscale thermophoresis. It counts as binding. An excerpt: microscale thermophoresis on HSP27

A further assay has as its target T2, p38MAPK (Homo sapiens, UniProt Q16539).
T2 construct: gene MAPK14; commercial recombinant human protein; labelled with Monolith RED-NHS
The experiment in a line: microscale thermophoresis. It counts as binding.

T1 sequence (P04792 whole entry): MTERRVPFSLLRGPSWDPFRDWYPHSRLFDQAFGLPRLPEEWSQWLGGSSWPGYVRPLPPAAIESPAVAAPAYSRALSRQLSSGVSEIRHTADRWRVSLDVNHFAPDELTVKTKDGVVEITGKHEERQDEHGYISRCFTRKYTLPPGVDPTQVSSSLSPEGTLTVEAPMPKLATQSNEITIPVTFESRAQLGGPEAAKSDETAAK
T2 sequence (Q16539 2-360): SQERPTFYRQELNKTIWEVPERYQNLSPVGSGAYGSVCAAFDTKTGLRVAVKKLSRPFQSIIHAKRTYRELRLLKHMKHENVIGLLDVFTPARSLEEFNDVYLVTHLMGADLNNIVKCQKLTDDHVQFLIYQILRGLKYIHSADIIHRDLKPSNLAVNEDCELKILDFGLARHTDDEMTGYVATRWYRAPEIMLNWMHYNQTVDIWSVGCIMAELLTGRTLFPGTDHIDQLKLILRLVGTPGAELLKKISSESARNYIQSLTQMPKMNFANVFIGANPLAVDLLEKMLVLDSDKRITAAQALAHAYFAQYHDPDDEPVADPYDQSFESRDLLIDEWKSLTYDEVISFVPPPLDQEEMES

Turning to `O=C(/C=C/c1ccc(O)c(O)c1)O[C@@H]1[C@H](O)C[C@@](O)(C(=O)O)C[C@H]1OC(=O)/C=C/c1ccc(O)c(O)c1` [4,5-Dicqa], the Kd was found to be 3.64 µM on HSP27 and 1.71 µM at p38MAPK. For `C[C@@H]1O[C@@H](OC[C@H]2O[C@@H](Oc3c(-c4ccc(O)c(O)c4)oc4cc(O)cc(O)c4c3=O)[C@H](O)[C@@H](O)[C@@H]2O)[C@H](O)[C@H](O)[C@H]1O` [Rutin], the Kd on HSP27 is 3.76 µM; on p38MAPK, 1.27 µM. On to `C[C@@H]1O[C@@H](OC[C@H]2O[C@@H](Oc3c(-c4ccc(O)cc4)oc4cc(O)cc(O)c4c3=O)[C@H](O)[C@@H](O)[C@@H]2O)[C@H](O)[C@H](O)[C@H]1O` [Nicotiflorin], for which the results for the dissociation constant (Kd) on HSP27 and on p38MAPK were 4.47 µM and 1.4 µM, respectively. As for `C[S+]([O-])c1ccc(-c2nc(-c3ccncc3)c(-c3ccc(F)cc3)[nH]2)cc1` (stereo not shown) [SB203580], on HSP27, the Kd worked out at 0.915 µM.
